Columns and labels:
MDA-MB-231 = assay: Cytotoxicity of EP probes via CTG assay; format: cell-based, human; details: 72 hr, read-out: MDA-MB231 EC50
SUM-149 = assay: Cytotoxicity of EP probes via CTG assay; format: cell-based, human; details: 72 hr, read-out: SUM149 EC50
T47D = assay: Cytotoxicity of EP probes via CTG assay; format: cell-based; details: 72 hr
HMEC = assay: Cytotoxicity of EP probes via CTG assay, normal cells; format: cell-based; details: 72 hr
[1] = tested on: MDA-MB-231, SUM-149, T47D; assay: Cytotoxicity of EP analogues via CTG assay, comparison across cell lines; details: 72 hr
Experimental: To better understand the structure-activity-relationship of EP, its core was modified at the C3 position of the steroid backbone. […] Both normal cell lines HMEC and BJ cells were also evaluated to determine therapeutic index.
(§1) Either 1×10^3-4.8×10^3 or 4×10^2-1.2×10^3 cells were seeded to each well of 96- or 384-well white polystyrene flat-bottomed plates (3610 or 8804BC, Corning) in 100 μL or 30 μL media per well, respectively. The concentrations used were experimentally determined to ensure logarithmic growth during the duration of the experiment and prevent adverse effects on cell growth by DMSO exposure. The plates were incubated at 37° C. in 5% CO2 for 24 h before treatment. Stock solutions of test compounds (10 mM in DMSO) in nine 3-fold serial dilutions were dispensed via pintool (Biomek). The final concentration of DMSO was 0.3% (v/v) in each well. The plates were incubated for 72 h at 37° C. in 5% CO2 and then quenched with CellTiter-Glo® reagent (50 μL/well in 96-well plate, 30 μL/well in 384-well plate) at RT. The positive controls included staurosporine (10 μM), gambogic acid (10 μM), and a toxic quinoline generated in-house. Plates were then incubated at RT for 20 min and centrifuged at 1000 rpm for 1 min. The cytotoxicity assay was performed by using the CellTiterGlo Luminescent Cell Viability Assay kit (G7570, Promega, Madison, WI) according to the manufacturer's instructions. Luminescence was recorded in an Envision plate reader (Perkin Elmer).

Propidium iodide assay = format: cell-based
Experimental: Efforts to address the specific target in breast cancer cellular models are disclosed. Thus, in the present disclosure, the EP-chemical probes were generated to study subcellular co-localization in order to recover its potential mechanism in breast cancer cell models. An efficient synthetic approach to EP and its analogues from ergosterol was developed. The resultant EP compounds were evaluated for cytotoxicity/apoptosis via CellTiterGlo assay, and propidium iodide assay.

BJ cells = assay: Cell viability assay in normal fibroblasts; details: at the concentrations tested
Experimental: The compounds' activity was also evaluated in human and murine leukemia (KOPN8, BCR-ABL, UoCB-1, SUP-B15, NALM06) cell lines. As a control, normal human skin fibroblasts (BJ) cells and non-cancerous mammary epithelial cells (MCF10A) were used.
Different concentrations of GLE-extracted bioactive chemical components were tested for 72-h treatment periods.
as §1, with “The cytotoxicity assay was performed by using the CellTiterGlo Luminescent Cell Viability Assay kit (G7570, Promega, Madison, WI) according to the manufacturer's instructions.” left out
For the CTG assay, 3 or 4 replicate assays were conducted for each experimental condition, and a minimum of 3 independent experiments were conducted for cellular assays. The mean luminescence of each experimental treatment group was normalized as a percentage of the mean intensity of untreated controls. EC50 values (μM) were calculated by Pipeline Pilot Software (Accelrys, Enterprise Platform, CA, USA). EC50 values (μM) from the viability assay were calculated from dose response curve-fitting via non-linear regression by using GraphPad Prism (Version 7.0 San Diego, CA). […]

MDA-MB-231 cells [2] = assay: ApoTox-Glo Triplex assay (caspase 3/7); format: cell-based, human; details: MDA-MB-231, 24 h
Experimental: (§2) Cells commonly fail to bypass the G1 phase of the cycle due to mutations or DNA damage, which can result in apoptosis. […] In addition, caspase 3/7 activity assays were performed as an alternate method of apoptosis detection.
(§3) Cells (9.5×10^4/well in 75 μL of fresh medium) were dispensed in 96-well black flat bottom (8807BC, Corning) plates. The cells were incubated for 12 h at 37° C. and then treated with compounds (25 μL) for 24 h. DMSO was used as a negative control, and staurosporine was used as the positive control. The experiment was stopped by adding the Viability/Cytotoxicity Reagent and briefly mixed by orbital shaking (300-500 rpm for ˜30 sec). Plates were incubated for 30 min at 37° C., and fluorescence was measured in an Envision plate reader at the following two wavelength sets: 400Ex/505Em (Viability) 485Ex/520Em (Cytotoxicity). Then, the Caspase-Glo® 3/7 Reagent was added; plates were mixed briefly by orbital shaking (300-500 rpm for ˜30 sec), followed by an additional 30 min incubation at RT. Then luminescence, which correlates with caspase 3/7 activation, was recorded with a plate reader to determine apoptosis induction.

SUM-149 cells [3] = assay: ApoTox-Glo Triplex assay (caspase 3/7); format: cell-based, human; details: SUM-149, 24 h
Experimental: as §2, §3

[4] = tested on: MDA-MB-231 breast cancer cells; assay: De novo in-cell protein synthesis (click assay); format: cell-based, human; details: 2 h treatment; EP 20 μM
Experimental: First, 2.5×10^4 cells/well were seeded in 8-well μ-slides (Ibidi®, #80826) and incubated at 37° C. for 12 h. The cells were treated with vehicle, compounds Ganoderic acid A or EP, or cycloheximide (positive control) for 2 h to determine protein synthesis as nascent proteins generated using Biovision's EZClick™ Global Protein Synthesis Assay Kit, (#K715-100, Milpitas, CA). The assay includes a robust chemical method based on an alkyne containing o-propargyl-puromycin (OP-puro) probe, which stops translation by forming covalent conjugates with nascent polypeptide chains. Truncated polypeptides are rapidly turned over by the proteasome and can be detected based on the subsequent click reaction with a fluorescent azide. The reaction was conducted according to the manufacturer's protocol. Cells were imaged at 20× with a Nikon C2 scanning confocal microscope, and the whole image montage was quantified by using Gen5 Software and Lionheart™ FX Automated Microscope (BioTek, Winooski, VT).

[5] = tested on: MCF-7 breast cancer cells; assay: Reactive oxygen species (ROS) measurement, CellROX; format: cell-based, human; details: not statistically significant for the GLE compounds
Experimental: Live-cell CellROX® assays for oxidative stress detection were conducted to evaluate whether GA-01, ergosterol, 5-6-dihydroergosterol and EP trigger intrinsic apoptosis pathways by inducing ROS. […] Menadione or t-Butyl hydrogen peroxide (TBHP) were positive controls (FIGS. 7 and S5) and co-treated with N-acetyl cysteine (NAC) to confirm that the signal was due to ROS formation induced by the compound. […] Furthermore, the possibility of the endoperoxide motif to react with NAC, was assessed EP was incubated with NAC in DMSO for 24 h at 37° C. […] Thus, the ability of EP to induce ROS could potentially be via a different mechanism from that of TBHP in MCF-7 cells.
The mRuby-Mito-7 plasmid was obtained from Addgene (#55874 from Michael Davidson). A stable clone of MCF-7 was generated by using Fugene 6 (Roche) to transfect cells (2×10^5) with plasmid (2.0 μg) under neomycin selection. A stable cell line was selected by using G418 (300 μg/mL) for 2 weeks, sorted by flow cytometry, and maintained under G418 thereafter. Transfected MCF-7 cells were plated at a density of 2×10^4 cells/well in black 96-well clear bottom tissue culture plates and incubated overnight at 37° C. […] Fluorescence intensity was measured in a Clariostar® plate reader (BMG LABTECH, Cary, NC) at 535 nm.

MDA-MB-231 cells [6] = assay: Reactive oxygen species (ROS) measurement, CellROX; format: cell-based, human; details: NAC 500 μM
SUM-149 cells [7] = assay: Reactive oxygen species (ROS) measurement, CellROX; format: cell-based, human; details: NAC 500 μM

CC(C)C(C)C=CC(C)C1CCC2C1(C)CCC1C23C=CC2(CC(OC(=O)CCCCC4SCC5NC(=O)NC54)CCC12C)OO3 (stereo not shown) [3k]
EC50 (MDA-MB-231): 10 µM | EC50 (SUM-149): 4 µM | EC50 (T47D): > 10 µM | EC50 (HMEC): > 14 µM | cytotoxicity compared with parental compound 3 (in words) [1]: comparable cytotoxicity to the parental compound 3 | ability to induce apoptosis (Propidium iodide assay): validated via propidium iodide assay

Cc1cc(C)n2c1C=C1C=CC(CCC(=O)OC3CCC4(C)C5CCC6(C)C(C(C)C=CC(C)C(C)C)CCC6C56C=CC4(C3)OO6)=[N+]1[B-]2(F)F (stereo not shown) [3m]
EC50 (MDA-MB-231): 18 µM | EC50 (SUM-149): 2 µM | EC50 (T47D): 18 µM | EC50 (HMEC): > 15 µM | cytotoxicity compared with parental compound 3 (in words) [1]: comparable cytotoxicity to the parental compound 3 | ability to induce apoptosis (Propidium iodide assay): validated via propidium iodide assay

C[C@H](CC(=O)C[C@@H](C)[C@H]1C[C@H](O)[C@@]2(C)C3=C(C(=O)C[C@]12C)[C@@]1(C)CCC(=O)C(C)(C)[C@@H]1C[C@@H]3O)C(=O)O [GA-01, ganoderic acid A]
cytotoxic effects in normal BJ cells (BJ cells): did not induce cytotoxic effects | caspase 3/7 activity (MDA-MB-231 cells [2]): increase caspase 3/7 activity | caspase 3/7 activity (SUM-149 cells [3]): increase caspase 3/7 activity | de novo protein synthesis inhibition [4]: do not inhibit de novo protein synthesis

CC(C)(C)OO [TBHP, t-Butyl hydroperoxide]
ROS formation reduction when co-treated with NAC [5]: ~50%

CC1=CC(=O)c2ccccc2C1=O [menadione, Menadione, reference compound]
reduction in ROS formation in the presence of NAC (MDA-MB-231 cells [6]): about 20% | reduction in ROS formation in the presence of NAC (SUM-149 cells [7]): about 20%

Reference: patent US12263177B2, “Biologically active ganoderma lucidum compounds and synthesis of anticancer derivatives; ergosterol peroxide probes for cellular localization” (priority 2019, dated 2025)
